According to patent publication US20260297121A1, “MITHRAMYCIN (MTM) 2’ OXIMES” (University of Kentucky Research Foundation, priority 2023, published 2026):
Where two headings read alike, the source gives them in different places.

Assays:
[1] = test system: BL1395; assay: Cytotoxicity, resazurin fluorescence, BL1395; assay type: cell-based; settings: read-out: GI50 BL1395
[2] = test system: TC32 cells; assay: Potency IC50 in TC32 cells and selectivity; assay type: cell-based; settings: Homo sapiens, TC-32, Table 2, read-out: IC50 TC32
Method: (§1) Exemplary compounds of the presently-disclosed subject matter were assessed for activity, including clearance, potency, and selectivity. Results from studies are compiled in Tables 2-4.
(§2) Desirable clearance was identified at lower values of mL hr^−1kg^−1 (e.g., about ≤10 mL hr^−1 kg^−1), desirable potency was identified at lower values of IC50 (e.g., about ≤10 nM in TC32 cells), and desired selectivity was identified at higher ratios of IC50 in PC3/IC50 in TC32 (e.g. about >10).

[3] = test system: H460; assay: Cytotoxicity, resazurin fluorescence, H460; assay type: cell-based; settings: Homo sapiens, read-out: GI50 H460
[4] = test system: TC71; assay: Cytotoxicity, resazurin fluorescence, TC71; assay type: cell-based; settings: Homo sapiens, TC-71; Table 6; 72 hr; EWS cells
[5] = test system: Non EWS cells; assay: Cytotoxicity, average over non-Ewing cell panel; assay type: cell-based; settings: read-out: GI50 Average, Non EWS cells
Method: (§3) Exemplary compounds of the presently-disclosed subject matter were assessed for cytotoxicity (Table 5) in Ewing sarcoma (TC32) and non-Ewing (PC3 prostate cancer). […] Cells (1000-5000/well) were seeded in 96-well plates and allowed to attach and grow for 24 hr prior to adding compounds in half-log increments from 0.3 nM-10 μM. Cell viability was assessed after 72 hr continuous incubation with compounds using resazurin fluorescence. GI50 values were estimated using GraphPad Prism.

[6] = test system: ES3; assay: Cytotoxicity, resazurin fluorescence, ES3; assay type: cell-based; settings: Table 6; 72 hr; EWS cells
[7] = log P; assay type: physicochemical; settings: Table 2
[8] = test system: DU145; assay: Cytotoxicity, resazurin fluorescence, DU145; assay type: cell-based; settings: Homo sapiens, read-out: GI50 DU145
[9] = test system: RDES; assay: Cytotoxicity, resazurin fluorescence, RDES; assay type: cell-based; settings: RD-ES; Table 6; 72 hr; EWS cells
[10] = test system: TC32; assay: Cytotoxicity, resazurin fluorescence, TC32; assay type: cell-based; settings: Homo sapiens, TC-32, 72 h
Method: as §3

[11] = test system: PC3; assay: IC50 in PC3 cells; assay type: cell-based; settings: Homo sapiens, PC-3, read-out: IC50 PC2, Table 2; head prints PC2, text PC3
Method: as §1, §2

[12] = test system: ES8; assay: Cytotoxicity, resazurin fluorescence, ES8; assay type: cell-based; settings: Homo sapiens, ES8; Table 6; 72 hr; EWS cells
[13] = test system: 5838; assay: Cytotoxicity, resazurin fluorescence, 5838; assay type: cell-based; settings: Table 6; 72 hr; express EWS-ERG
[14] = test system: ES7; assay: Cytotoxicity, resazurin fluorescence, ES7; assay type: cell-based; settings: Homo sapiens, ES7; Table 6; 72 hr; EWS cells
[15] = test system: A549; assay: Cytotoxicity, resazurin fluorescence, A549; assay type: cell-based; settings: Homo sapiens, read-out: GI50 A549
[16] = test system: PC3; assay: Cytotoxicity, resazurin fluorescence, PC3; assay type: cell-based; settings: Homo sapiens, PC-3, 72 h
Method: as §3

[17] = test system: Hela; assay: Cytotoxicity, resazurin fluorescence, Hela; assay type: cell-based; settings: Homo sapiens, HeLa, read-out: GI50 Hela
[18] = test system: EWS cells; assay: Cytotoxicity, average over Ewing (EWS) cell panel; assay type: cell-based; settings: Table 6; 72 hr; average of EWS cells
Method: as §3

[19] = test system: PANC1; assay: Cytotoxicity, resazurin fluorescence, PANC1; assay type: cell-based; settings: Homo sapiens, read-out: GI50 PANC1
[20] = test system: HepG2; assay: Cytotoxicity, resazurin fluorescence, HepG2; assay type: cell-based; settings: Homo sapiens, read-out: GI50 HepG2
[21] = Clearance (CL) / pharmacokinetics; assay type: in vivo, mice; settings: mouse, plasma, iv; Table 2
Method: as §1, §2
Pharmacokinetics of exemplary compounds of the presently-disclosed subject matter were studied in mice following bolus IV dosing. Groups of three mice were administered the compound(s) and blood samples were collected via saphenous bleed. Plasma was separated by centrifugation and extracted to quantitate analytes by LC/MS/MS. Sample analysis followed upon the system meeting system suitability criteria customary for fit for purpose analytical methods. FIG. 1A includes data comparing YL-C09 to mithramycin (MTM) dosed separately. FIG. 1B includes data for YL-B171, YL-C110 and MTM dosed in cassette format.

[22] = test system: A673; assay: Cytotoxicity, resazurin fluorescence, A673; assay type: cell-based; settings: Homo sapiens, A673; Table 6; 72 hr; EWS cells
[23] = test system: LNCap; assay: Cytotoxicity, resazurin fluorescence, LNCap; assay type: cell-based; settings: Homo sapiens, LNCaP, read-out: GI50 LNCap
[24] = test system: SK.ES1; assay: Cytotoxicity, resazurin fluorescence, SK.ES1; assay type: cell-based; settings: Homo sapiens, SK-ES1; Table 6; 72 hr; EWS cells
[25] = test system: ES4; assay: Cytotoxicity, resazurin fluorescence, ES4; assay type: cell-based; settings: Table 6; 72 hr; EWS cells
[26] = read-out: GI50 TC32, Table 6, EWS cells

Row | Compound | IC50 [2] [nM] | GI50 [4] [nM] | GI50 [6] [nM] | logP [7] | GI50 [9] [nM] | GI50 ([10]; read-out: GI50 TC32, Table 5) [nM] | GI50 [10, 26] [nM] | IC50 [11] [nM] | GI50 [12] [nM] | GI50 [13] [nM] | GI50 [14] [nM] | GI50 ([16]; read-out: GI50 PC3, Table 5) [nM] | GI50 [18] [nM] | clearance [21] [mL/min/kg] | GI50 [22] [nM] | GI50 [24] [nM] | GI50 [25] [nM] | also measured
1 | CO[C@H](C(=NOCCNC(=O)c1cc2cc(F)ccc2[nH]1)[C@@H](O)[C@@H](C)O)[C@@H]1Cc2cc3cc(O[C@H]4C[C@@H](O[C@H]5C[C@@H](O)[C@H](O)[C@@H](C)O5)[C@H](O)[C@@H](C)O4)c(C)c(O)c3c(O)c2C(=O)[C@H]1O[C@H]1C[C@@H](O[C@H]2C[C@@H](O[C@H]3C[C@](C)(O)[C@H](O)[C@@H](C)O3)[C@@H](O)[C@@H](C)O2)[C@H](O)[C@@H](C)O1 [YL-B168] | 2.15 | 258 | 56.7 | 1.62 | 32.9 | 30 | 30.3 | 19.5 | 68.8 | 40.2 | 76.9 | 65 | 66.9 | 0.717 | 34.5 | 39.2 | 30.9 | GI50 ([1]; Lymphocyte, 72 h): 49.9 nM; GI50 ([3]; NCI-H460, 72 h): 116 nM; GI50 ([5]; 72 h): 191 nM; GI50 ([8]; DU-145, 72 h): 90.5 nM; GI50 ([15]; A549, 72 h): 358 nM; GI50 ([16]; read-out: GI50 PC3, Table 6, non EWS cells): 65.2 nM; GI50 ([17]; 72 h): 470 nM; GI50 ([19]; PANC-1, 72 h): 105 nM; GI50 ([20]; HepG2, 72 h): > 1000 nM; GI50 ([23]; 72 h): 275 nM
2 | CO[C@H](C(=NOCCNC(=O)c1cc2cc(OC(F)(F)F)ccc2[nH]1)[C@@H](O)[C@@H](C)O)[C@@H]1Cc2cc3cc(O[C@H]4C[C@@H](O[C@H]5C[C@@H](O)[C@H](O)[C@@H](C)O5)[C@H](O)[C@@H](C)O4)c(C)c(O)c3c(O)c2C(=O)[C@H]1O[C@H]1C[C@@H](O[C@H]2C[C@@H](O[C@H]3C[C@](C)(O)[C@H](O)[C@@H](C)O3)[C@@H](O)[C@@H](C)O2)[C@H](O)[C@@H](C)O1 [YL-B171] | 4.62 | 19.5 | 31.5 | 2.93 | 32.7 | 26 | 25.6 | 10.7 | 36.7 | 37.1 | 26.7 | 49 | 31.7 |  | 51 | 35.4 | 20.4 | GI50 ([1]; Table 6, 72 hr, lymphocyte origin): 51.5 nM; GI50 ([3]; NCI-H460, Table 6, 72 hr, non EWS cells): 69.5 nM; GI50 ([5]; Table 6, 72 hr, average of non EWS cells): 97.6 nM; GI50 ([8]; DU-145, Table 6, 72 hr, non EWS cells): 32.5 nM; GI50 ([15]; A549, Table 6, 72 hr, non EWS cells): 114 nM; GI50 ([16]; Table 6, non EWS cells, read-out: GI50 PC3): 49.3 nM; GI50 ([17]; Table 6, 72 hr, non EWS cells): 105 nM; GI50 ([19]; PANC-1, Table 6, 72 hr, non EWS cells): 138 nM; GI50 ([20]; HepG2, Table 6, 72 hr, hepatic origin): 202 nM; GI50 ([23]; Table 6, 72 hr, non EWS cells): 117 nM
3 | CO[C@H](C(=NOCCNC(=O)c1[nH]c2ccc(Cl)cc2c1-c1cnoc1)[C@@H](O)[C@@H](C)O)[C@@H]1Cc2cc3cc(O[C@H]4C[C@@H](O[C@H]5C[C@@H](O)[C@H](O)[C@@H](C)O5)[C@H](O)[C@@H](C)O4)c(C)c(O)c3c(O)c2C(=O)[C@H]1O[C@H]1C[C@@H](O[C@H]2C[C@@H](O[C@H]3C[C@](C)(O)[C@H](O)[C@@H](C)O3)[C@@H](O)[C@@H](C)O2)[C@H](O)[C@@H](C)O1 [YL-C108] | 6.12 |  |  | 1.44 |  | 34 |  | 40.3 |  |  |  | 126 |  | 0.4 |  |  |  | 
4 | CO[C@H](C(=NOCCNC(=O)c1[nH]c2ccc(F)cc2c1-c1ccc(Cl)cc1)[C@@H](O)[C@@H](C)O)[C@@H]1Cc2cc3cc(O[C@H]4C[C@@H](O[C@H]5C[C@@H](O)[C@H](O)[C@@H](C)O5)[C@H](O)[C@@H](C)O4)c(C)c(O)c3c(O)c2C(=O)[C@H]1O[C@H]1C[C@@H](O[C@H]2C[C@@H](O[C@H]3C[C@](C)(O)[C@H](O)[C@@H](C)O3)[C@@H](O)[C@@H](C)O2)[C@H](O)[C@@H](C)O1 [YL-C118] | 36.6 |  |  | 3.64 |  | 232 |  | 582 |  |  |  | 417 |  | 0.467 |  |  |  | 
5 | COC(C(=NOCCNC(=O)c1[nH]c2ccc(O)cc2c1-c1ccc(Cl)cc1)C(O)C(C)O)C1Cc2cc3cc(OC4CC(OC5CC(O)C(O)C(C)O5)C(O)C(C)O4)c(C)c(O)c3c(O)c2C(=O)C1OC1CC(OC2CC(OC3CC(C)(O)C(O)C(C)O3)C(O)C(C)O2)C(O)C(C)O1 (centres unmarked) [YL-C120] | 7.6 |  |  | 3.04 |  | 36 |  | 31.4 |  |  |  | 66 |  | 0.417 |  |  |  | 
6 | CO[C@H](C(=NOCCNC(=O)c1[nH]c2ccc(Cl)cc2c1-c1cncnc1)[C@@H](O)[C@@H](C)O)[C@@H]1Cc2cc3cc(O[C@H]4C[C@@H](O[C@H]5C[C@@H](O)[C@H](O)[C@@H](C)O5)[C@H](O)[C@@H](C)O4)c(C)c(O)c3c(O)c2C(=O)[C@H]1O[C@H]1C[C@@H](O[C@H]2C[C@@H](O[C@H]3C[C@](C)(O)[C@H](O)[C@@H](C)O3)[C@@H](O)[C@@H](C)O2)[C@H](O)[C@@H](C)O1 [YL-C122] | 18.5 |  |  | 1.73 |  | 162 |  | 124 |  |  |  | 477 |  | 0.683 |  |  |  | 
